Numbers after ± are expanded uncertainties.
Assays:
[1] = 101 kPa, Liquid; for speed of sound: Linear variable-path acoustic interferometer; for mass density: Pycnometric method
[2] = mn = molality of the nth substance listed, in mol/kg; details: 101 kPa, Liquid, m2 = 0; for speed of sound: Linear variable-path acoustic interferometer; for mass density: Pycnometric method

speed of sound ([1]; 275.15 K) | mass density ([1]; 275.15 K) | speed of sound ([1]; 279.15 K) | mass density ([1]; 279.15 K) | speed of sound ([1]; 283.15 K) | mass density ([1]; 283.15 K) | speed of sound ([2]; 275.15 K) | mass density ([2]; 275.15 K) | speed of sound ([2]; 279.15 K) | mass density ([2]; 279.15 K) | speed of sound ([2]; 283.15 K) | mass density ([2]; 283.15 K) | Compound
1412.2 ± 2.8 m/s | 999.94 ± 0.47 kg/m3 | 1430.6 ± 2.8 m/s | 999.94 ± 0.47 kg/m3 | 1447.3 ± 2.8 m/s | 999.7 ± 0.46 kg/m3 |  |  |  |  |  |  | O [water]
 |  |  |  |  |  | 1412.2 ± 2.8 m/s | 999.94 ± 0.47 kg/m3 | 1430.6 ± 2.8 m/s | 999.94 ± 0.47 kg/m3 | 1447.3 ± 2.8 m/s | 999.7 ± 0.46 kg/m3 | O [water] + CC(C)[C@H](N)C(=O)O
 |  |  |  |  |  | 1412.2 ± 2.8 m/s | 999.94 ± 0.47 kg/m3 | 1430.6 ± 2.8 m/s | 999.94 ± 0.47 kg/m3 | 1447.3 ± 2.8 m/s | 999.7 ± 0.46 kg/m3 | O [water] + C[C@@H](O)[C@H](N)C(=O)O
 |  |  |  |  |  | 1412.2 ± 2.8 m/s | 999.94 ± 0.47 kg/m3 | 1430.6 ± 2.8 m/s | 999.94 ± 0.47 kg/m3 | 1447.3 ± 2.8 m/s | 999.7 ± 0.46 kg/m3 | O [water] + N=C(N)NCCC[C@H](N)C(=O)O
